From patent publication US20070292403A1, “Methods of treating a neurological disorder with creatine monohydrate” (priority 2006, published 2007)
Entries after “also recorded” stand apart in the source; their conditions may differ.

Columns and labels:
[1] = system: subjects with early Parkinson's disease (PD); assay: Example 2: randomized double-blind futility trial, change in total UPDRS; format: in vivo, human; conditions: baseline to 12 months or time symptomatic therapy needed; creatine 10 g/day, minocycline 200 mg/day; worst change score imputed
Method: (§1) Study Design and Randomization. This example was a single arm futility study designed to assess creatine and minocycline. A placebo arm for calibration was included in the example. Eligible subjects were randomly assigned in a 1:1:1 fashion to receive 1) 10 g/day of creatine monohydrate and placebo minocycline, 2) placebo creatine monohydrate and 200 mg/day of minocycline, or 3) placebo creatine monohydrate and placebo minocycline. The primary futility analysis was at 12 months of follow-up, but each subject was followed for 18 months for additional safety information. Subjects and investigators were kept blinded to treatment group.
Participants. […] Two of the three cardinal manifestations of PD (tremor, rigidity, and bradykinesia) were required; these findings had to be asymmetric. The diagnosis of PD must have been made within 5 years of randomization. Women of childbearing potential were required to use adequate birth control and have a negative pregnancy test at baseline. Subjects were excluded if they had any secondary causes of parkinsonism, such as drug induced parkinsonism or structural lesions; had atypical parkinsonian syndromes; gait freezing or impairment in postural reflexes; had prior stereotaxis surgery for PD; used creatine, minocycline, or any investigational agent within 90 days prior to randomization; had known hypersensitivity to creatine or minocycline; used CoQ10 in doses greater than 300 mg 90 days prior to randomization; or had any clinically significant medical condition that could interfere with the subject's ability to safely participate in the study or be followed.
(§2) Dosages. Creatine was administered as 5 g sachets mixed with 8 ounces of liquid taken twice a day and minocycline was administered as 100 mg capsules taken twice a day. Both were taken with meals.
Outcome measures. […] Disability was assessed by the sight investigator, based on impairment in ambulation, activities in daily living, and occupational status. […] Both the site investigator and medical monitors assessed the potential relationship between SAEs and study drug. […]

[2] = system: subjects with early Parkinson's disease (PD); assay: Example 2: safety and tolerability in the early Parkinson's disease trial; format: in vivo, human
Method: as §1, §2
Outcome measures. The primary, prespecified outcome measure was the change in the total Unified PD Rating Scale (UPDRS) score from baseline to either the time at which there was sufficient disability to warrant symptomatic therapy for PD or 12 months, whichever came first. Disability was assessed by the sight investigator, based on impairment in ambulation, activities in daily living, and occupational status. The mean change in total UPDRS for each treatment group was compared to a prespecified futility threshold of a 30% reduction in the historically derived change in the total UPDRS, which was based on a placebo arm of a previous clinical trial. Tolerability was defined as the proportion of subjects taking study drug for the full 12 months. All […] adverse events (SAEs) were reviewed by the study medical monitor and an independent medical monitor. Both the site investigator and medical monitors assessed the potential relationship between SAEs and study drug.
Study Procedures. At the screening visit, the purpose and potential risks were explained to potential subjects and each subject gave written consent. […] Blood was obtained for serum chemistry and complete blood count. Participants were reevaluated at 1, 3, 6, 9, and 12 months (±6 days) after the baseline visit using the battery of clinical scales and blood was drawn again at 6 and 12 months.

In the case of `CN(C)c1ccc(O)c2c1C[C@H]1C[C@H]3[C@H](N(C)C)C(O)=C(C(N)=O)C(=O)[C@@]3(O)C(O)=C1C2=O` [Minocycline, minocycline], the “Mean (SD) change in total UPDRS” value [1] is reported as 7.09 (8.71), the “SAEs occurring during the study” value ([2]; creatine 10 g/day, minocycline 200 mg/day) is reported as “Six” and the Tolerability ([2]; creatine 10 g/day, minocycline 200 mg/day, 12 months) is reported as “generally well tolerated; also recorded: less well tolerated than creatine”. For the same compound, the “Patients with dose reductions” value ([2]; human, in vivo) was 15.
